Test results taken from patent publication US9096500B2, “Acyl sulfonamide compounds” (Pfizer Limited, priority 2010, dated 2015).

Biological target: T1, Nav1.7 (or SCN9A) channel (Homo sapiens, UniProt Q15858)
T1 construct: expressed in transfected cells
Experiment: Nav1.7 (hSCN9A) electrophysiology assay, PatchXpress platform
Type: cell-based
Details: estimated IC50 from single point electrophysiology data, HEK cells stably expressing hSCN9A, held at V1/2 of inactivation, read-out: Nav1.7 EIC50
Procedure, shortened: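 HEK cells stably expressing hSCN9A were recorded by whole-cell voltage clamp, including on PatchXpress, at 22–24°C with extracellular solution at pH 7.4. A 20 msec step to 0 mV followed an 8 s conditioning prepulse to the empirically determined inactivation V1/2. Inhibition was taken from current amplitude before vs after compound.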

T1 sequence (Q15858 whole entry): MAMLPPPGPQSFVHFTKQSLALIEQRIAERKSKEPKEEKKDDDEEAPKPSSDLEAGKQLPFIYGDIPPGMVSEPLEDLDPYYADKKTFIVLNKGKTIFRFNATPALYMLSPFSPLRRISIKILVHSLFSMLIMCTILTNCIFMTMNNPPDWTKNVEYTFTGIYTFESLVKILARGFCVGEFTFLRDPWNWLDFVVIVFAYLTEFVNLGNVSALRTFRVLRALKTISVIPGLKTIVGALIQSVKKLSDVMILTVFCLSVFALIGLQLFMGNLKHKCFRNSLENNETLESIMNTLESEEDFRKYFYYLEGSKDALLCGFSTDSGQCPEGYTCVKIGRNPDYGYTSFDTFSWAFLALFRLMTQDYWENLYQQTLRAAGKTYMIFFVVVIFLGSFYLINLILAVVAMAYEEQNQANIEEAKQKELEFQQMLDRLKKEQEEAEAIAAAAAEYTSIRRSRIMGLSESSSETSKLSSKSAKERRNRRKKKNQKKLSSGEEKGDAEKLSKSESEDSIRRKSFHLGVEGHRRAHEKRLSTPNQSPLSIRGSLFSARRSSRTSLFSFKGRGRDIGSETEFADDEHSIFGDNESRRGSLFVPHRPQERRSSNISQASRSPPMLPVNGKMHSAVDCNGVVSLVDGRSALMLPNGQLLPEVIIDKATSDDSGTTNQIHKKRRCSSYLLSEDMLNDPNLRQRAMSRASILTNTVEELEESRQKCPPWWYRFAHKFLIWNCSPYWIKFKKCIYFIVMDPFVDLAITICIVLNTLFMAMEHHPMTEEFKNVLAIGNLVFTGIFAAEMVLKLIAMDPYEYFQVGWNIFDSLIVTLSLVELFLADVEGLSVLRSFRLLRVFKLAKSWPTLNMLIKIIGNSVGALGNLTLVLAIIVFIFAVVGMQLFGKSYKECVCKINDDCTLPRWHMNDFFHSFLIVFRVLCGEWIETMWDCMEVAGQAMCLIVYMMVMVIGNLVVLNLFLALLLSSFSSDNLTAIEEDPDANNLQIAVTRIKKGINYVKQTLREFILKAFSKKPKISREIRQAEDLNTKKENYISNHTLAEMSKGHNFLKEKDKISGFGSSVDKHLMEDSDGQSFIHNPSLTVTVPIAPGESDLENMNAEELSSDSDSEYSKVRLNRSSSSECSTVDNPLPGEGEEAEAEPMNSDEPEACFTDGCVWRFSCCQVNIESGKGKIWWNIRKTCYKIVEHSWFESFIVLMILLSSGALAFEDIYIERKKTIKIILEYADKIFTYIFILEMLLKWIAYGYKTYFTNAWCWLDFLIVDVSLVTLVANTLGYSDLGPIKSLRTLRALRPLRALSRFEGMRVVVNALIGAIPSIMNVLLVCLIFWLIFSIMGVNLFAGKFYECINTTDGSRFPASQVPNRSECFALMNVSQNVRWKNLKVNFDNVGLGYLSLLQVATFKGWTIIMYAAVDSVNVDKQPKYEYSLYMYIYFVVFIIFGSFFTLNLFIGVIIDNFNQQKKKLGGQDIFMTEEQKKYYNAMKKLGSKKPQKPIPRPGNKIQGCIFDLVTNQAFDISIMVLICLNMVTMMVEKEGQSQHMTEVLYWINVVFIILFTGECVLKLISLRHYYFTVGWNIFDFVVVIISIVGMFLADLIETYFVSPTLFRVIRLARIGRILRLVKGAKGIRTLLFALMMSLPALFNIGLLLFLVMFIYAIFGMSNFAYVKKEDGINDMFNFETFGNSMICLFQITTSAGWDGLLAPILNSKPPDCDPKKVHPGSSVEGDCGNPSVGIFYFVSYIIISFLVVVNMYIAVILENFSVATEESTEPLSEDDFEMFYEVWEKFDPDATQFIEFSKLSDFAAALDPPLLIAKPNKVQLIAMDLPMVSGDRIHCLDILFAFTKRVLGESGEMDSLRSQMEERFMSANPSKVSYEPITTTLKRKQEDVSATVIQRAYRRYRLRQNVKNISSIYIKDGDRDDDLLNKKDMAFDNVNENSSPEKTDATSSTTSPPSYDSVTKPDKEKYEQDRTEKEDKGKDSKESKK

| SMILES | IC50 |
| --- | --- |
| CS(=O)(=O)NC(=O)c1cc(F)c(OCC2CCC2)cc1F [Example 197, 4-(cyclobutylmethoxy)-2,5-difluoro-N-(methylsulfonyl)benzamide] | > 1000 nM |
| COc1ccc(COc2cc(F)c(C(=O)NS(C)(=O)=O)cc2F)cc1 [Example 198, 2,5-difluoro-4-[(4-methoxybenzyl)oxy]-N-(methylsulfonyl)benzamide] | > 1000 nM |
| CS(=O)(=O)NC(=O)c1cc(F)c(OCc2ccccc2F)cc1F [Example 199, 2,5-difluoro-4-[(2-fluorobenzyl)oxy]-N-(methylsulfonyl)benzamide] | 2400 nM |
| COc1cc(C)ccc1COc1cc(F)c(C(=O)NS(C)(=O)=O)cc1F [Example 200, 2,5-difluoro-4-[(2-methoxy-4-methylbenzyl)oxy]-N-(methylsulfonyl)benzamide] | 5000 nM |
| COc1cc(COc2cc(F)c(C(=O)NS(C)(=O)=O)cc2F)cc(OC)c1 [Example 201, 4-[(3,5-dimethoxybenzyl)oxy]-2,5-difluoro-N-(methylsulfonyl)benzamide] | > 1000 nM |
| COc1ccc(OC)c(COc2cc(F)c(C(=O)NS(C)(=O)=O)cc2F)c1 [Example 202, 4-[(2,5-dimethoxybenzyl)oxy]-2,5-difluoro-N-(methylsulfonyl)benzamide] | 11000 nM |
| Cc1ccc(COc2cc(F)c(C(=O)NS(C)(=O)=O)cc2F)cc1C [Example 203, 4-[(3,4-dimethylbenzyl)oxy]-2,5-difluoro-N-(methylsulfonyl)benzamide] | 1700 nM |
| CS(=O)(=O)NC(=O)c1ccc(OCc2ccc(F)cc2F)cc1 [Example 204, 4-[(2,4-difluorobenzyl)oxy]-N-(methylsulfonyl)benzamide] | 3600 nM |
| COc1ccc(F)c(COc2cc(F)c(C(=O)NS(C)(=O)=O)cc2F)c1 [Example 205, 2,5-difluoro-4-[(2-fluoro-5-methoxybenzyl)oxy]-N-(methylsulfonyl)benzamide] | > 3000 nM |
| COc1cccc(COc2cc(F)c(C(=O)NS(C)(=O)=O)cc2F)c1OC [Example 206, 4-[(2,3-dimethoxybenzyl)oxy]-2,5-difluoro-N-(methylsulfonyl)benzamide] | > 1000 nM |
| CS(=O)(=O)NC(=O)c1cc(F)c(OCc2cccc(Cl)c2)cc1F [Example 207, 4-[(3-chlorobenzyl)oxy]-2,5-difluoro-N-(methylsulfonyl)benzamide] | > 300 nM |
| CS(=O)(=O)NC(=O)c1ccc(OCc2cc(F)ccc2F)cc1 [Example 208, 4-[(2,5-difluorobenzyl)oxy]-N-(methylsulfonyl)benzamide] | 2600 nM |
| COc1ccc(C)cc1COc1ccc(C(=O)NS(C)(=O)=O)cc1 [Example 210, 4-[(2-methoxy-5-methylbenzyl)oxy]-N-(methylsulfonyl)benzamide] | > 1000 nM |
| CS(=O)(=O)NC(=O)c1cc(F)c(OCc2ccc(OC(F)F)cc2)cc1F [Example 211, 4-{[4-(difluoromethoxy)benzyl]oxy}-2,5-difluoro-N-(methylsulfonyl)benzamide] | 2600 nM |
| CS(=O)(=O)NC(=O)c1cc(F)c(OCc2ccc(OC(F)(F)F)cc2)cc1F [Example 212, 2,5-difluoro-N-(methylsulfonyl)-4-{[4-(trifluoromethoxy)benzyl]oxy}benzamide] | > 300 nM |
| CS(=O)(=O)NC(=O)c1ccc(OCc2ccc(Cl)cc2F)cc1 [Example 213, 4-[(4-chloro-2-fluorobenzyl)oxy]-N-(methylsulfonyl)benzamide] | > 300 nM |
| CS(=O)(=O)NC(=O)c1cc(F)c(OCc2cccc(Cl)c2Cl)cc1F [Example 214, 4-[(2,3-dichlorobenzyl)oxy]-2,5-difluoro-N-(methylsulfonyl)benzamide] | 3800 nM |
| COc1cc(F)ccc1COc1cc(F)c(C(=O)NS(C)(=O)=O)cc1F [Example 215, 2,5-difluoro-4-[(4-fluoro-2-methoxybenzyl)oxy]-N-(methylsulfonyl)benzamide] | > 1000 nM |

| SMILES | IC50 |
| --- | --- |
| CS(=O)(=O)NC(=O)c1cc(F)c(OCc2ccc(F)cc2)cc1F [Example 216, 2,5-difluoro-4-[(4-fluorobenzyl)oxy]-N-(methylsulfonyl)benzamide] | 3800 nM |
| Cc1cccc(COc2cc(F)c(C(=O)NS(C)(=O)=O)cc2F)c1 [Example 217, 2,5-difluoro-4-[(3-methylbenzyl)oxy]-N-(methylsulfonyl)benzamide] | > 1000 nM |
| CS(=O)(=O)NC(=O)c1cc(F)c(OCc2ccccc2OC(F)F)cc1F [Example 218, 4-{[2-(difluoromethoxy)benzyl]oxy}-2,5-difluoro-N-(methylsulfonyl)benzamide] | 3400 nM |
| COc1ccc(C)cc1COc1cc(F)c(C(=O)NS(C)(=O)=O)cc1F [Example 219, 2,5-difluoro-4-[(2-methoxy-5-methylbenzyl)oxy]-N-(methylsulfonyl)benzamide] | > 1000 nM |
| CS(=O)(=O)NC(=O)c1cc(F)c(OCc2ccccc2C(F)(F)F)cc1F [Example 220, 2,5-difluoro-N-(methylsulfonyl)-4-{[2-(trifluoromethyl)benzyl]oxy}benzamide] | 1700 nM |
| CS(=O)(=O)NC(=O)c1cc(F)c(OCc2ccccc2Cl)cc1F [Example 221, 4-[(2-chlorobenzyl)oxy]-2,5-difluoro-N-(methylsulfonyl)benzamide] | 1800 nM |
| COc1cc(COc2cc(F)c(C(=O)NS(C)(=O)=O)cc2F)ccc1C [Example 222, 2,5-difluoro-4-[(3-methoxy-4-methylbenzyl)oxy]-N-(methylsulfonyl)benzamide] | 3600 nM |
| COc1ccc(Cl)cc1COc1ccc(C(=O)NS(C)(=O)=O)cc1 [Example 223, 4-[(5-chloro-2-methoxybenzyl)oxy]-N-(methylsulfonyl)benzamide] | > 300 nM |
| CS(=O)(=O)NC(=O)c1cc(F)c(OCc2cccc(OC(F)F)c2)cc1F [Example 224, 4-{[3-(difluoromethoxy)benzyl]oxy}-2,5-difluoro-N-(methylsulfonyl)benzamide] | > 300 nM |
| CS(=O)(=O)NC(=O)c1cc(F)c(OCc2ccc(Cl)cc2)cc1F [Example 225, 4-[(4-chlorobenzyl)oxy]-2,5-difluoro-N-(methylsulfonyl)benzamide] | > 300 nM |
| CCOc1ccccc1COc1cc(F)c(C(=O)NS(C)(=O)=O)cc1F [Example 226, 4-[(2-ethoxybenzyl)oxy]-2,5-difluoro-N-(methylsulfonyl)benzamide] | > 1000 nM |
| CS(=O)(=O)NC(=O)c1cc(F)c(OCc2ccc3ccccc3c2)cc1F [Example 227, 2,5-difluoro-N-(methylsulfonyl)-4-(2-naphthylmethoxy)benzamide] | 940 nM |
| Cc1ccc(COc2cc(F)c(C(=O)NS(C)(=O)=O)cc2F)cc1Cl [Example 228, 4-[(3-chloro-4-methylbenzyl)oxy]-2,5-difluoro-N-(methylsulfonyl)benzamide] | 1200 nM |
| CS(=O)(=O)NC(=O)c1cc(F)c(OCc2cc(F)ccc2F)cc1F [Example 229, 4-[(2,5-difluorobenzyl)oxy]-2,5-difluoro-N-(methylsulfonyl)benzamide] | > 1000 nM |
| COc1ccc(Cl)cc1COc1cc(F)c(C(=O)NS(C)(=O)=O)cc1F [Example 230, 4-[(5-chloro-2-methoxybenzyl)oxy]-2,5-difluoro-N-(methylsulfonyl)benzamide] | 2200 nM |
| CS(=O)(=O)NC(=O)c1cc(F)c(OCc2ccc(Cl)cc2F)cc1F [Example 231, 4-[(4-chloro-2-fluorobenzyl)oxy]-2,5-difluoro-N-(methylsulfonyl)benzamide] | 1400 nM |
| CS(=O)(=O)NC(=O)c1cc(F)c(OCc2ccc(F)cc2Cl)cc1F [Example 232, 4-[(2-chloro-4-fluorobenzyl)oxy]-2,5-difluoro-N-(methylsulfonyl)benzamide] | 2100 nM |
| COc1ccccc1COc1cc(F)c(C(=O)NS(C)(=O)=O)cc1F [Example 233, 2,5-difluoro-4-[(2-methoxybenzyl)oxy]-N-(methylsulfonyl)benzamide] | > 1000 nM |

Biological target: T1, Nav1.7 (or SCN9A) channel
Experiment: Nav1.7 (hSCN9A) electrophysiology assay, Ionworks Quattro platform
Type: cell-based
Details: IW: Ionworks Quattro automated electrophysiological platform; HEK cells stably expressing hSCN9A; read-out: Nav1.7 EIC50

| SMILES | IC50 |
| --- | --- |
| COc1ccc(OCc2ccc(C(=O)NS(C)(=O)=O)cc2)cc1 [Example 31, 4-[(4-Methoxyphenoxy)methyl]-N-(methylsulfonyl)benzamide] | 22000 nM |
